Experimental data: a melting point compilation (Tetko et al.; mined from patent text by program, amines drawn as free bases though some values may be those of a salt)

Q: Which melting point does the source give for `CCCNC(=O)c1cnc2c(c1O)CN(C(=O)OCC)CC2` here?
A: 199 to 201 °C

Q: With `CCS(=O)(=O)Nc1cc(Br)cc(Cc2c[nH]cn2)c1C` as the molecule, how does the melting point read?
A: 202 to 204 °C

Q: Which melting point does the source give for `CCc1cc(OCc2ccccc2)cc(=O)o1` here?
A: 62 to 63 °C

Q: With `COC(=O)c1sc(C)c2[nH]c(C(F)(F)C(F)(F)F)nc12` as the molecule, how does the melting point read?
A: 156 to 157 °C

Q: With `Cc1ccc(C(=O)Nc2ccc(-n3nc(C(F)(F)F)cc3C(F)(F)F)cc2)c(Cl)n1` as the molecule, how does the melting point read?
A: 155 to 156 °C

Q: Which melting point does the source give for `COc1nc(C)cnc1N(C(=O)OCC(C)C)S(=O)(=O)c1cccnc1-c1ccc(O)cc1` here?
A: 144 to 146 °C

Q: With `COc1ccc2cc(-c3nn(C)c4cc(OC)ccc34)ccc2c1` as the molecule, how does the melting point read?
A: 166 to 168 °C

Q: For `Cc1ccc(C(=O)O)cc1OCc1ccccc1`, which melting point is on record?
A: 159 to 161 °C

Q: With `CCCCc1c(-c2ccccc2)nc(N)nc1-c1ccccc1` as the molecule, how does the melting point read?
A: 154 to 155 °C

Q: Which melting point does the source give for `CN1CC(c2ccc(Nc3cc(-c4cccc(N5Cc6cc(C(C)(C)C)ccc6C5=O)c4CO)cn(C)c3=O)nc2)C1` here?
A: 201 to 202 °C

Q: Which melting point does the source give for `CCS(=O)(=O)N1CCC(NC(=O)Nc2ccc(OC(F)(F)F)cc2)CC1` here?
A: 235 to 239 °C

Q: Which melting point does the source give for `CS(=O)(=O)Nc1cc(C(O)CNCCCCCCOCCCCOc2ccc3ccccc3c2)ccc1O` (stereo not given) here?
A: 99.5 to 100 °C

Q: For `N#Cc1cc(N2CCC(c3cc(Cl)cc(Cl)c3)(C(F)(F)F)C2)ccc1F` (stereo not given), which melting point is on record?
A: 184 to 186 °C

Q: For `CS(=O)CC(=O)c1ccc(Cl)cc1N` (stereo not given), which melting point is on record?
A: 129 to 132 °C

Q: For `CNC(=O)Nc1ccc2c(c1)C(=O)C1(CC1)O2`, which melting point is on record?
A: 196 to 204 °C

Q: Which melting point does the source give for `Cc1ccc(C(=O)C(F)(F)S(=O)(=O)c2ccccc2)cc1` here?
A: 79 to 81 °C

Q: With `CCOC(=O)C1=C(O)c2cc3cc(OC)ccc3n2CC1` as the molecule, how does the melting point read?
A: 157 to 160 °C

Q: Which melting point does the source give for `Cc1nc2c(s1)Cc1cc(Cl)ccc1-2` here?
A: 94 °C

Q: With `CCCOc1n[nH]c(=O)n1C1CCCCC1` as the molecule, how does the melting point read?
A: 132 to 136 °C

Q: With `COCC1CCCN1S(=O)(=O)c1ccc2c(c1)C1(OCCCO1)C1=NCCCN12` (stereo not given) as the molecule, how does the melting point read?
A: 129 to 130 °C

Q: For `O=c1oc(Cc2ccc(Oc3ccccc3)cc2)nn1-c1ccccc1Cl`, which melting point is on record?
A: 85 °C

Q: For `FC(F)(F)c1ccccc1N=C1CCc2cc3c(nc21)C(=Nc1ccccc1C(F)(F)F)CC3`, which melting point is on record?
A: > 350 °C

Q: With `CCN(CC)NC(C)=O` as the molecule, how does the melting point read?
A: 47.5 to 49.5 °C

Q: With `NC(=O)C1CN(CCCCN(c2ccc(F)cc2)c2ccc(F)cc2)CCN1` (stereo not given) as the molecule, how does the melting point read?
A: 67.4 °C

Q: For `O=C(COc1ccc2ccccc2c1)Nc1ccc(C(=O)C(=O)O)cc1`, which melting point is on record?
A: 215 to 216 °C

Q: For `C=CCNC(=O)N1CC(Oc2cccc(Br)c2)C1`, which melting point is on record?
A: 90 to 92 °C

Q: With `c1ccc2c(c1)C(=NOCCN1CCOCC1)c1ccccc1C1CC21` (stereo not given) as the molecule, how does the melting point read?
A: 90 to 91 °C

Q: For `CC(C)n1c(C=O)c(-c2ccc(F)cc2)c2cccnc21`, which melting point is on record?
A: 95 to 101 °C

Q: Which melting point does the source give for `CC(=O)Oc1c(C)c(C)c2c(c1C)CCC(O)O2` (stereo not given) here?
A: 115 to 120 °C

Q: Which melting point does the source give for `CCOC(=O)c1cnc2ccc(F)cc2c1Cl` here?
A: 55 to 57 °C

Q: With `CC(C)(C)c1ccc(C(=O)n2c3cc(O)c(O)cc3c3ccc(O)c(O)c32)cc1` as the molecule, how does the melting point read?
A: 234 to 236 °C

Q: Which melting point does the source give for `Nc1nc(-c2ccco2)c(C(=O)c2ccccn2)s1` here?
A: 206 to 207 °C

Q: Which melting point does the source give for `NC(=O)CCN1CCCCC1` here?
A: 105 to 107 °C

Q: With `O=C(Nc1cscn1)Nc1cccc2c1C1CCCCN1C2=O` (stereo not given) as the molecule, how does the melting point read?
A: 178 to 180 °C

Q: Which melting point does the source give for `O=C(CCCN1CCC(NC(=O)c2ccccc2)CC1)c1ccccc1` here?
A: 143 to 144 °C

Q: Which melting point does the source give for `Clc1cccc(N2CCN(CCCCOc3ccc4scnc4c3)CC2)c1Cl` here?
A: 93 to 94.5 °C

Q: For `NS(=O)(=O)c1ccc(OCCn2ccnc2)cc1`, which melting point is on record?
A: 148 °C

Q: For `O=C1NCCc2ccc(O)cc21`, which melting point is on record?
A: 201 to 203 °C

Q: With `COCc1c(C(=O)OC(CO)CO)ncc2[nH]c3ccc(OCc4ccccc4)cc3c12` as the molecule, how does the melting point read?
A: 190 to 192 °C

Q: With `CCCCCCC(CCC(=O)OC)n1cnc(NC(=O)c2ccccc2C(=O)O)c1` (stereo not given) as the molecule, how does the melting point read?
A: 135 to 136 °C

Q: With `Cc1cccc(-c2cc(C(=O)O)n(C)n2)c1` as the molecule, how does the melting point read?
A: 150 to 153 °C

Q: For `N#CC(NCCCO)c1ccc(F)cc1` (stereo not given), which melting point is on record?
A: 69 to 70 °C

Q: With `CC(C)n1c(C(F)(F)F)cnc1-c1ccc(O)cc1` as the molecule, how does the melting point read?
A: 249 to 250 °C

Q: Which melting point does the source give for `c1ccc2c(c1)C(=NOCCN1CCCCC1)c1ccccc1C1CC21` (stereo not given) here?
A: 75 to 76 °C

Q: Which melting point does the source give for `COC(=O)C1CC(C(=O)OC)NC(=O)N1` (stereo not given) here?
A: 178 to 179 °C

Q: With `CC(=O)NC[C@H]1CN(c2ccc(C(=O)c3cnc4ccc(F)cn34)cc2)C(=O)O1` as the molecule, how does the melting point read?
A: 224 to 226 °C

Q: With `O=C(c1ccccc1)N1CCCc2ncc3ccccc3c21` as the molecule, how does the melting point read?
A: 208 to 210 °C

Q: For `COc1ccc(-n2nnc(-c3ccc(C(F)(F)F)cc3F)c2N)cc1`, which melting point is on record?
A: 165 to 166 °C

Q: With `CC1(c2ccc(O)cc2)CC1(Cl)Cl` (stereo not given) as the molecule, how does the melting point read?
A: 125 to 126 °C

Q: With `CCc1ccc(C(=NO)c2ccc(F)cc2)c(O)c1` as the molecule, how does the melting point read?
A: 130 to 132 °C

Q: With `c1ccc(Nc2nsc3nc4ccccc4n23)nc1` as the molecule, how does the melting point read?
A: 156 to 157 °C

Q: Which melting point does the source give for `COc1ccc(/C=C/c2nc3ccccc3c(=O)o2)cc1OC(C)=O` here?
A: 187 to 190 °C

Q: For `CC(=O)N1CCCc2c(c3ccc(-n4ccc(-c5ccc(C(F)(F)F)nc5)cc4=O)cc3n2C)C1`, which melting point is on record?
A: 156 to 162 °C

Q: With `CSc1ccc(N2CCc3ccccc32)c([N+](=O)[O-])c1` as the molecule, how does the melting point read?
A: 67 to 69 °C

Q: With `CC(C)(C)OC(=O)N1C[C@@H](CC(=O)COCC[Si](C)(C)C)[C@H]2NC(=O)[C@H]21` as the molecule, how does the melting point read?
A: 89 to 91 °C

Q: Which melting point does the source give for `CCOc1c(OC)cccc1-c1nc2ccc(C(=O)O)cc2c(=O)[nH]1` here?
A: 168 to 169 °C

Q: For `O=C(NCc1ccc(Cl)cc1)c1cn2c3c(cc(CN4CCOCC4)cc3c1=O)OC(c1ccccc1O)C2` (stereo not given), which melting point is on record?
A: 239 °C

Q: For `CCn1cc(C2CCC3(CC2)OCCO3)c2cc(C#N)ccc21`, which melting point is on record?
A: 124 to 126 °C

Q: With `CCCOc1cc(OCCC)c2c(C)c(CCCl)c(=O)oc2c1` as the molecule, how does the melting point read?
A: 99 to 101 °C

Q: Which melting point does the source give for `CCc1nn(CCO)c(CC)c1C(=O)c1cc(Cl)cc(Cl)c1` here?
A: 134 °C

Q: With `COC(=O)c1cc(C)cnc1C1=NC(C)(C(C)C)C(=O)N1C(=O)c1ccccc1` (stereo not given) as the molecule, how does the melting point read?
A: 104 to 106 °C

Q: With `C=C(C)C(=O)OCCCCCCOc1ccc(C(=O)O)cc1` as the molecule, how does the melting point read?
A: 83 °C

Q: For `CC(=NNc1nnc(-n2c(=S)[nH]c3ccccc32)s1)c1ccccn1`, which melting point is on record?
A: > 280 °C

Q: Which melting point does the source give for `Cc1ccc(C(=O)c2ccc(Cc3c(Cl)cc(N)cc3Cl)cc2)cn1` here?
A: 153 to 155 °C

Q: For `CN(C)c1cccc2nc3cccc(C(=O)O)c3nc12`, which melting point is on record?
A: 186 to 188 °C

Q: With `O=C(NCc1ccccn1)c1cc(OCC(F)(F)F)ccc1O` as the molecule, how does the melting point read?
A: 143 to 145 °C

Q: With `CC(=O)Nc1ccccc1NS(=O)(=O)c1cc(C(=O)O)cc([N+](=O)[O-])c1Oc1ccccc1` as the molecule, how does the melting point read?
A: 224 to 226 °C

Q: With `COc1ccc2c(c1)c(Cc1cc(=O)n(C3CCCCC3)[nH]1)c(C)n2Cc1ccccc1` as the molecule, how does the melting point read?
A: 102 to 105 °C

Q: For `Nc1nc2ccccc2n1CCCN1CCN(C(c2ccccc2)c2ccccc2)CC1`, which melting point is on record?
A: 229 °C

Q: With `CC(C)(C)OC(=O)Nc1cc(COC2CCCCO2)c(-c2ccc(F)cc2)cc1N` (stereo not given) as the molecule, how does the melting point read?
A: 139 to 142 °C

Q: For `O=C1c2ccccc2C(O)(c2ccccc2)N1CCc1ccc(O)cc1` (stereo not given), which melting point is on record?
A: 188 °C

Q: With `Cc1[nH]c2cccnc2c1-c1ccc(F)cc1` as the molecule, how does the melting point read?
A: 199 to 206 °C

Q: For `Cc1ncc(CCC(=O)O)s1`, which melting point is on record?
A: 120 °C

Q: Which melting point does the source give for `CCc1cnc2c(NC(=O)c3c(Cl)cccc3Cl)cccc2c1CCl` here?
A: 193 to 194 °C

Q: Which melting point does the source give for `CCOCc1cc2cc(Br)ccc2oc1=Nc1ccc(C)cc1` here?
A: 116 to 117 °C
